According to patent US7964624B1, “Inhibitors of serine proteases” (priority 2005, dated 2011):
pKi: −log10 of the molar value.

Biological target: T1, HCV NS3 protease domain (Hepatitis C virus genotype 1b, UniProt Q9WMX2)
T1 construct: The first 181 amino acids of NS3 (residues 1027-1207 of the viral polyprotein); hexa-histidine (C); made in house; host or cells: E. coli BL21/DE3 pLysS
Assay: biochemical
Details: Enzyme Assay 1 (HCV NS3 Protease Domain Peptide Cleavage Assay) activity, apparent Ki class

T1 sequence (Q9WMX2 1027-1207, other chains not shown): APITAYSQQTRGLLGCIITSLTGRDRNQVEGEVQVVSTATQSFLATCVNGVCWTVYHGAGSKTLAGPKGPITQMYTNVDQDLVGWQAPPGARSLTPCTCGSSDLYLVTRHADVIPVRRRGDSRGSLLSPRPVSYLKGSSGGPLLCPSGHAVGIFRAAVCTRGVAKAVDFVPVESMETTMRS

Structure (SMILES)	pKi
CCC[C@H](NC(=O)[C@@H]1C[C@]2(CC(c3cccc(Cl)c3)=NO2)CN1C(=O)[C@@H](NC(=O)CC1CCOCC1)C1CCCCC1)C(=O)C(=O)NC1CC1 [Compound 37]	< 6.30
CCC[C@H](NC(=O)[C@@H]1C[C@]2(CC(c3cccc(Cl)c3)=NO2)CN1C(=O)[C@@H](NC(=O)Cc1sc(C)nc1C)C(C)(C)C)C(=O)C(=O)NC1CC1 [Compound 75]	6.30 to 7.00
CCC[C@H](NC(=O)[C@@H]1C[C@]2(CC(c3cccc(Cl)c3)=NO2)CN1C(=O)[C@@H](NC(=O)CSc1cccc2cccnc12)C(C)(C)C)C(=O)C(=O)NC1CC1 [Compound 454]	6.30 to 7.00
CCC[C@H](NC(=O)[C@@H]1C[C@]2(CC(c3cccc(C(=O)O)c3)=NO2)CN1C(=O)[C@@H](NC(=O)O[C@H]1CCOC1)C(C)(C)C)C(=O)C(=O)NC1CC1 [Compound 481]	< 6.30
CCC[C@H](NC(=O)[C@@H]1C[C@]2(CC(c3cccc(Cl)c3)=NO2)CN1C(=O)[C@@H](NC(=O)Cc1cccc(OC)c1)C(C)(C)C)C(=O)C(=O)NC1CC1 [Compound 287]	6.30 to 7.00
CCC[C@H](NC(=O)[C@@H]1C[C@]2(CC(c3cccc(Cl)c3)=NO2)CN1C(=O)[C@@H](NC(=O)[C@@H](C)Cc1ccccc1)C(C)(C)C)C(=O)C(=O)NC1CC1 [Compound 334]	< 6.30
CCC[C@H](NC(=O)[C@@H]1C[C@]2(CC(c3cccc(Cl)c3)=NO2)CN1C(=O)[C@@H](NC(=O)OCc1ccc(C)cc1)C(C)(C)C)C(=O)C(=O)NC1CC1 [Compound 471]	6.30 to 7.00
CCC[C@H](NC(=O)[C@@H]1C[C@]2(CC(c3cccnc3)=NO2)CN1C(=O)[C@@H](NC(=O)CC1CCCCC1)C(C)(C)C)C(=O)C(=O)NC1CC1 [Compound 303]	< 6.30
CCC[C@H](NC(=O)[C@@H]1C[C@]2(CC(c3cccc(Cl)c3)=NO2)CN1C(=O)[C@@H](NC(=O)Cc1cc(F)ccc1C)C(C)(C)C)C(=O)C(=O)NC1CC1 [Compound 155]	< 6.30
CCC[C@H](NC(=O)[C@@H]1C[C@]2(CC(c3cccc(Cl)c3)=NO2)CN1C(=O)[C@@H](NC(=O)CCn1ccnc1C)C(C)(C)C)C(=O)C(=O)NC1CC1 [Compound 237]	6.30 to 7.00
C#CCCC(NC(=O)[C@@H]1C[C@]2(CC(c3cccc(Cl)c3)=NO2)CN1C(=O)[C@@H](NC(=O)CC1CCCCC1)C(C)(C)C)C(=O)C(=O)NC1CC1 (some centres unmarked) [Compound 453]	6.30 to 7.00
CCC[C@H](NC(=O)[C@@H]1C[C@]2(CC(c3cccc(Cl)c3)=NO2)CN1C(=O)[C@@H](NC(=O)NC(C)C)C(C)(C)C)C(=O)C(=O)NC1CC1 [Compound 379]	> 7.00
CCC[C@H](NC(=O)[C@@H]1C[C@]2(CC(c3cccc(Cl)c3)=NO2)CN1C(=O)[C@@H](NC(=O)NCc1cccnc1)C(C)(C)C)C(=O)C(=O)NC1CC1 [Compound 497]	6.30 to 7.00
CCC[C@H](NC(=O)[C@@H]1C[C@]2(CC(c3cccc(Cl)c3)=NO2)CN1C(=O)[C@@H](NC(=O)CC1=CCCCC1)C(C)(C)C)C(=O)C(=O)NC1CC1 [Compound 245]	6.30 to 7.00
CCC[C@H](NC(=O)[C@@H]1C[C@]2(CC(c3cc(Cl)c(OC)cc3OC)=NO2)CN1C(=O)[C@@H](NC(=O)OCc1ccccc1)C(C)(C)C)C(=O)C(=O)NC1CC1 [Compound 110]	6.30 to 7.00
CCC[C@H](NC(=O)[C@@H]1C[C@]2(CC(c3cccc(Cl)c3)=NO2)CN1C(=O)[C@@H](NC(=O)c1cc(NC(C)=O)sc1C(C)=O)C(C)(C)C)C(=O)C(=O)NC1CC1 [Compound 161]	< 6.30
CCC[C@H](NC(=O)[C@@H]1C[C@]2(CC(c3ccc(OC)cc3OC)=NO2)CN1C(=O)[C@@H](NC(=O)OCc1ccccc1)C(C)(C)C)C(=O)C(=O)NC1CC1 [Compound 335]	< 6.30
CCC[C@H](NC(=O)[C@@H]1C[C@]2(CC(c3cccc(Cl)c3)=NO2)CN1C(=O)[C@@H](NC(=O)OCCCc1cccnc1)C(C)(C)C)C(=O)C(=O)NC1CC1 [Compound 389]	< 6.30

Structure (SMILES)	pKi
CCC[C@H](NC(=O)[C@@H]1C[C@]2(CC(c3cccc(Cl)c3)=NO2)CN1C(=O)[C@@H](NC(=O)CCn1ncc2ccccc21)C(C)(C)C)C(=O)C(=O)NC1CC1 [Compound 528]	6.30 to 7.00
CCC[C@H](NC(=O)[C@@H]1C[C@]2(CC(c3cccc(Cl)c3)=NO2)CN1C(=O)[C@@H](NC(=O)c1c(OC)ccc2ccccc12)C(C)(C)C)C(=O)C(=O)NC1CC1 [Compound 435]	6.30 to 7.00
CCC[C@H](NC(=O)[C@@H]1C[C@]2(CC(c3cccc(Cl)c3)=NO2)CN1C(=O)[C@@H](NC(=O)CCC1CCCCC1)C(C)(C)C)C(=O)C(=O)NC1CC1 [Compound 226]	6.30 to 7.00
CCC[C@H](NC(=O)[C@@H]1C[C@]2(CC(c3ccc(C)c(C)c3)=NO2)CN1C(=O)[C@@H](NC(=O)O[C@H]1CCOC1)C(C)(C)C)C(=O)C(=O)NC1CC1 [Compound 36]	6.30 to 7.00
CCC[C@H](NC(=O)[C@@H]1C[C@]2(CC(c3ccc(Cl)c(Cl)c3)=NO2)CN1C(=O)[C@@H](NC(=O)CC1CCOCC1)C(C)(C)C)C(=O)C(=O)NC1CC1 [Compound 78]	6.30 to 7.00
CCC[C@H](NC(=O)[C@@H]1C[C@]2(CC(c3cccc(Cl)c3)=NO2)CN1C(=O)[C@@H](NC(=O)[C@H]1CC[C@@H](OC)CC1)C(C)(C)C)C(=O)C(=O)NC1CC1 [Compound 108]	6.30 to 7.00
CCC[C@H](NC(=O)[C@@H]1C[C@]2(CC(c3cccc(Cl)c3)=NO2)CN1C(=O)C1CC1c1ccccc1)C(=O)C(=O)NC1CC1 (some centres unmarked) [Compound 421]	< 6.30
CCC[C@H](NC(=O)[C@@H]1C[C@]2(CC(c3cccc(Cl)c3)=NO2)CN1C(=O)[C@@H](NC(=O)Nc1cccnc1)C(C)(C)C)C(=O)C(=O)NC1CC1 [Compound 576]	6.30 to 7.00
CCC[C@H](NC(=O)[C@@H]1C[C@]2(CC(c3cc(F)cc(C(F)(F)F)c3)=NO2)CN1C(=O)[C@@H](NC(=O)O[C@H]1CCOC1)C(C)(C)C)C(=O)C(=O)NC1CC1 [Compound 498]	6.30 to 7.00
CCC[C@H](NC(=O)[C@@H]1C[C@]2(CC(c3cccc(Cl)c3)=NO2)CN1C(=O)[C@@H](NC(=O)CC1CCCCC1)C(C)(C)C)C(=O)C(=O)Nc1cccc(C(C)=O)c1 [Compound 355]	< 6.30
CCC[C@H](NC(=O)[C@@H]1C[C@]2(CC(c3ccc(OC)c(OC4CCCC4)c3)=NO2)CN1C(=O)[C@@H](NC(=O)O[C@H]1CCOC1)C(C)(C)C)C(=O)C(=O)NC1CC1 [Compound 8]	< 6.30
CCC[C@H](NC(=O)[C@@H]1C[C@]2(CC(c3cc(F)cc(C(F)(F)F)c3)=NO2)CN1C(=O)O[C@H]1CCOC1)C(=O)C(=O)NC1CC1 [Compound 348]	< 6.30
CCC[C@H](NC(=O)[C@@H]1C[C@]2(CC(CC)=NO2)CN1C(=O)[C@@H](NC(=O)OCc1ccccc1)C(C)(C)C)C(=O)C(=O)NC1CC1 [Compound 383]	< 6.30
CCC[C@H](NC(=O)[C@@H]1C[C@]2(CC(c3cccc(Cl)c3)=NO2)CN1C(=O)[C@@H](NC(=O)CCc1ccc(F)cc1)C(C)(C)C)C(=O)C(=O)NC1CC1 [Compound 7]	< 6.30
CCC[C@H](NC(=O)[C@@H]1C[C@]2(CC(c3cccc(-c4ccccc4)c3)=NO2)CN1C(=O)[C@@H](NC(=O)O[C@H]1CCOC1)C(C)(C)C)C(=O)C(=O)NC1CC1 [Compound 257]	6.30 to 7.00
CCC[C@H](NC(=O)[C@@H]1C[C@]2(CC(c3cccc(Cl)c3)=NO2)CN1C(=O)[C@@H](NC(=O)[C@H]1CC[C@H](OC)CC1)C(C)(C)C)C(=O)C(=O)NC1CC1 [Compound 503]	6.30 to 7.00
CCC[C@H](NC(=O)[C@@H]1C[C@]2(CC(c3cccc(Cl)c3)=NO2)CN1C(=O)[C@@H](NC(=O)OCC1CCCC1)C(C)(C)C)C(=O)C(=O)NC1CC1 [Compound 14]	< 6.30
